Measured values taken from ChEMBL document CHEMBL1146212, “Glyceraldehyde 3-phosphate dehydrogenase is a cellular target of the insulin mimic demethylasterriquinone B1” (J Med Chem, 2007).

Legend:
[1] = target: Glyceraldehyde-3-phosphate dehydrogenase (Homo sapiens, UniProt P04406); test: Binding affinity to GAPDH in human erythrocytes; format: cell-based
[2] = target: Glyceraldehyde-3-phosphate dehydrogenase (Oryctolagus cuniculus, UniProt P46406); test: Binding affinity to GAPDH in rabbit muscle
Sequence of Glyceraldehyde-3-phosphate dehydrogenase (Oryctolagus cuniculus, UniProt P46406) (P46406 whole entry): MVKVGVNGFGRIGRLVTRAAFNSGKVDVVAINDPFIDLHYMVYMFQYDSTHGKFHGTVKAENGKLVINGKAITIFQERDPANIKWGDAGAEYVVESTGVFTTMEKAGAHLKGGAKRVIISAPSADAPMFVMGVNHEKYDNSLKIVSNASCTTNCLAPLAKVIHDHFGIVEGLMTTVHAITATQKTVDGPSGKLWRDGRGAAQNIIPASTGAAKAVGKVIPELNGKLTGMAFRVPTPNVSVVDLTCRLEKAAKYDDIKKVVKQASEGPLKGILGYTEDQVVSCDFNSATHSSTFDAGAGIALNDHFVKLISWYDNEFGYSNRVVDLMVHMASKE

Sequence of Glyceraldehyde-3-phosphate dehydrogenase (Homo sapiens, UniProt P04406) (P04406 whole entry): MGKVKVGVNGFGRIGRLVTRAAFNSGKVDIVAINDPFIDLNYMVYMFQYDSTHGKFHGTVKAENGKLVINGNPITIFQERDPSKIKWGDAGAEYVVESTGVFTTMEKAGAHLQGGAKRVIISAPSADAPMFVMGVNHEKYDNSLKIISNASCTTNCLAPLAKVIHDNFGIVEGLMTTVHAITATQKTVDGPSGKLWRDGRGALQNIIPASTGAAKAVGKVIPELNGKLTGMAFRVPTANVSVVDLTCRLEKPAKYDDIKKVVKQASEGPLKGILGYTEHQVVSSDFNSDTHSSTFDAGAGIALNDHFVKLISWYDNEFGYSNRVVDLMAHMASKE

Row | Kd [1] [µM] | IC50 [2] [µM] | SMILES
1 | 7.5 |  | CC(C)=CCc1cccc2c(C3=C(O)C(=O)C(c4c(C)[nH]c5ccc(NC(=O)CCCCCNC(=O)CCCCC6SCC7NC(=O)NC76)cc45)=C(O)C3=O)c[nH]c12 (stereo not drawn)
2 | 7.2 | 15 | C=CC(C)(C)c1[nH]c2ccccc2c1C1=C(O)C(O)=C(c2c[nH]c3c(CC=C(C)C)cccc23)C(=O)C1=O
